According to ChEMBL document CHEMBL1201862, “PubChem BioAssay data set” (2004):
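Dose response: 5 concentrations. Exposure: 48 h. Format: 96-well plates. Endpoint: linear interpolation; highest concentration if not reached. The concentration for 50% growth inhibition is given as GI50.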 Calls of active or inactive are those of the source. No stated cut-off is given here; in the data, active = GI50 up to about 1.1 µM and inactive = higher.

Columns and labels:
Assay in all cases: NCI-60 cell line screen, 48 h
[1] = tested on: 786-0
[2] = tested on: MDA-N
[3] = tested on: IGROV-1
[4] = tested on: A549
[5] = tested on: UACC-257
[6] = tested on: HCT-116
[7] = tested on: SF-295
[8] = tested on: SNB-19
[9] = tested on: Hs-578T
[10] = tested on: NCI-H226
[11] = tested on: ACHN
[12] = tested on: SF-539
[13] = tested on: OVCAR-3
[14] = tested on: MDA-MB-435
[15] = tested on: SW-620
[16] = tested on: MCF7
[17] = tested on: NCI/ADR-RES
[18] = tested on: HL-60
[19] = tested on: Malme-3M

| SMILES | GI50 [1] | GI50 [2] | GI50 [3] | GI50 [4] | GI50 [5] | GI50 [6] | GI50 [7] | GI50 [8] | GI50 [9] | GI50 [10] | GI50 [11] | GI50 [12] | GI50 [13] | GI50 [14] | GI50 [15] | GI50 [16] | GI50 [17] | GI50 [18] | GI50 [19] |
| --- | --- | --- | --- | --- | --- | --- | --- | --- | --- | --- | --- | --- | --- | --- | --- | --- | --- | --- | --- |
| COc1cc2c(c(O)c1OC)C(=O)C1CCC(=O)N1C2c1cccc2ccccc12 (configuration not stated) | > 100 µM (inactive) | 40.8 µM (inactive) | 36.1 µM (inactive) | 28.8 µM (inactive) | 30.1 µM (inactive) | 50.5 µM (inactive) | 43.2 µM (inactive) | 41.9 µM (inactive) | 82.6 µM (inactive) | > 100 µM (inactive) | 28.9 µM (inactive) | 41.5 µM (inactive) | 30.6 µM (inactive) | 44.5 µM (inactive) | 39.7 µM (inactive) | 32.5 µM (inactive) | 41.2 µM (inactive) | 20.6 µM (inactive) | 81.8 µM (inactive) |
| Cc1nn(C(=O)c2ccccc2O)c2c1C(c1ccccc1)SC(=N)N2 (configuration not stated) | 1.57 µM (inactive) | 1.2 µM (inactive) | 0.481 µM (active) | 0.6 µM (active) | 2.01 µM (inactive) | 0.906 µM (active) | 3.74 µM (inactive) | 6.38 µM (inactive) | 0.7 µM (active) | 1.16 µM (inactive) | 0.419 µM (active) | 0.214 µM (active) | 1.79 µM (inactive) | 0.416 µM (active) | 3.58 µM (inactive) | 2.81 µM (inactive) | 1.56 µM (inactive) | 1.61 µM (inactive) | 0.479 µM (active) |
| O=C(O)CCCNc1ncc2c(n1)-c1ccccc1OC2 | > 100 µM (inactive) | > 100 µM (inactive) | 47.8 µM (inactive) | > 100 µM (inactive) | > 100 µM (inactive) | > 100 µM (inactive) | > 100 µM (inactive) | > 100 µM (inactive) | > 100 µM (inactive) | > 100 µM (inactive) | > 100 µM (inactive) | > 100 µM (inactive) | > 100 µM (inactive) | > 100 µM (inactive) | > 100 µM (inactive) | > 100 µM (inactive) | > 100 µM (inactive) | 30.1 µM (inactive) | > 100 µM (inactive) |
| COc1ccc(C(C)NNC(=O)c2cc[n+]([BH2-]C#N)cc2)cc1F (configuration not stated) | > 100 µM (inactive) | > 100 µM (inactive) | > 100 µM (inactive) | > 100 µM (inactive) | > 100 µM (inactive) | > 100 µM (inactive) | > 100 µM (inactive) | > 100 µM (inactive) | > 100 µM (inactive) | > 100 µM (inactive) | > 100 µM (inactive) | > 100 µM (inactive) | > 100 µM (inactive) | > 100 µM (inactive) | > 100 µM (inactive) | > 100 µM (inactive) | > 100 µM (inactive) | > 100 µM (inactive) | > 100 µM (inactive) |
| C1CCN2CC34CC(CC5CCCN(C6CCCC3N6)C54)C2C1 (configuration not stated) | 84.7 µM (inactive) | > 100 µM (inactive) | > 100 µM (inactive) | > 100 µM (inactive) | > 100 µM (inactive) | > 100 µM (inactive) | > 100 µM (inactive) | > 100 µM (inactive) | > 100 µM (inactive) | > 100 µM (inactive) | > 100 µM (inactive) | > 100 µM (inactive) | > 100 µM (inactive) | > 100 µM (inactive) | > 100 µM (inactive) | > 100 µM (inactive) | > 100 µM (inactive) | > 100 µM (inactive) | > 100 µM (inactive) |
| Cc1cc(=O)oc2cc3oc(N(C)c4ccccc4)nc(=O)c3cc12 | > 100 µM (inactive) | > 100 µM (inactive) | > 100 µM (inactive) | > 100 µM (inactive) | > 100 µM (inactive) | > 100 µM (inactive) | > 100 µM (inactive) | 67.9 µM (inactive) | 46.7 µM (inactive) | > 100 µM (inactive) | > 100 µM (inactive) | > 100 µM (inactive) | > 100 µM (inactive) | > 100 µM (inactive) | > 100 µM (inactive) | > 100 µM (inactive) | > 100 µM (inactive) | > 100 µM (inactive) | > 100 µM (inactive) |
| CC(=O)NC(=N/N=C1/C(=O)Nc2ccc(C)cc21)NC(C)=O | > 100 µM (inactive) | > 100 µM (inactive) | > 100 µM (inactive) | > 100 µM (inactive) | > 100 µM (inactive) | > 100 µM (inactive) | 52.1 µM (inactive) | > 100 µM (inactive) | > 100 µM (inactive) | 98.2 µM (inactive) | > 100 µM (inactive) | – | – | > 100 µM (inactive) | > 100 µM (inactive) | > 100 µM (inactive) | > 100 µM (inactive) | > 100 µM (inactive) | > 100 µM (inactive) |
| Cc1cn(C2CC(O)C(Cn3nncc3Cn3nc(Br)c(=O)[nH]c3=O)O2)c(=O)[nH]c1=O (configuration not stated) | > 100 µM (inactive) | > 100 µM (inactive) | > 100 µM (inactive) | > 100 µM (inactive) | > 100 µM (inactive) | > 100 µM (inactive) | > 100 µM (inactive) | > 100 µM (inactive) | > 100 µM (inactive) | > 100 µM (inactive) | > 100 µM (inactive) | > 100 µM (inactive) | > 100 µM (inactive) | > 100 µM (inactive) | > 100 µM (inactive) | > 100 µM (inactive) | > 100 µM (inactive) | – | > 100 µM (inactive) |
| COc1cc(OC)c2c(=O)cc(-c3ccccc3F)[nH]c2c1 | 47.9 µM (inactive) | 25.8 µM (inactive) | 37.5 µM (inactive) | 38.5 µM (inactive) | > 100 µM (inactive) | 38.3 µM (inactive) | 34.3 µM (inactive) | 26 µM (inactive) | > 100 µM (inactive) | 23.7 µM (inactive) | > 100 µM (inactive) | – | 57 µM (inactive) | 8.38 µM (inactive) | 59.3 µM (inactive) | 54.5 µM (inactive) | 35.3 µM (inactive) | > 100 µM (inactive) | > 100 µM (inactive) |
| COc1ccc(CC2NC(=O)/C=C/CC(C(C)C3OC3c3ccccc3)OC(=O)C(CC(C)C)OC(=O)C(C)CNC2=O)cc1Cl (configuration not stated) | < 1e-05 µM (active) | < 1e-05 µM (active) | 2.36e-05 µM (active) | < 1e-05 µM (active) | 4.07e-05 µM (active) | < 1e-05 µM (active) | 1.34e-05 µM (active) | – | 1.78e-05 µM (active) | 2.4e-05 µM (active) | 2.81e-05 µM (active) | 1.34e-05 µM (active) | < 1e-05 µM (active) | < 1e-05 µM (active) | 1.36e-05 µM (active) | 1.34e-05 µM (active) | 4.81e-05 µM (active) | < 1e-05 µM (active) | – |
| COC(=O)c1c(OC(C)=O)ccc2c1c1cc3ccccc3c(OC(C)=O)c1n2C | 11 µM (inactive) | 33.8 µM (inactive) | 2.73 µM (inactive) | 19.9 µM (inactive) | – | 15.4 µM (inactive) | 40.5 µM (inactive) | 68.5 µM (inactive) | 4.43 µM (inactive) | 37.2 µM (inactive) | 8.09 µM (inactive) | 17.5 µM (inactive) | 23.9 µM (inactive) | 25.6 µM (inactive) | – | 9.33 µM (inactive) | 34.8 µM (inactive) | 19.3 µM (inactive) | 14.4 µM (inactive) |
| Cc1c(C#N)c2nnn(-c3ccccc3)c(=O)n2c1-c1ccccc1 | 1.67 µM (inactive) | 0.179 µM (active) | 1.48 µM (inactive) | 1.29 µM (inactive) | 25.4 µM (inactive) | 0.619 µM (active) | 0.752 µM (active) | 3.31 µM (inactive) | 4.51 µM (inactive) | 2.84 µM (inactive) | 8.97 µM (inactive) | 1.17 µM (inactive) | 0.824 µM (active) | 0.307 µM (active) | – | 2.39 µM (inactive) | 1.12 µM (active) | 0.376 µM (active) | 26.5 µM (inactive) |
| O=C(Nc1cc(Cl)c(I)c(Cl)c1)C(F)(F)F | 29 µM (inactive) | 35.8 µM (inactive) | 27.2 µM (inactive) | – | 45.6 µM (inactive) | 24.5 µM (inactive) | 33.3 µM (inactive) | 35.9 µM (inactive) | 22.4 µM (inactive) | 23.1 µM (inactive) | 30.3 µM (inactive) | > 10 µM (inactive) | 24.9 µM (inactive) | 30.3 µM (inactive) | 45.3 µM (inactive) | 38.4 µM (inactive) | 34.8 µM (inactive) | 19.2 µM (inactive) | > 10 µM (inactive) |
| COC(=O)C(CCSC)NC(=O)CNC(=O)CSc1nnc(COc2ccc(Cl)cc2)n1-c1ccccc1 (configuration not stated) | 16 µM (inactive) | 18.6 µM (inactive) | 16.6 µM (inactive) | 41.3 µM (inactive) | 18.3 µM (inactive) | 16.9 µM (inactive) | – | 69.3 µM (inactive) | 22.3 µM (inactive) | 18.8 µM (inactive) | 17 µM (inactive) | 18.7 µM (inactive) | – | 17.9 µM (inactive) | 20.3 µM (inactive) | 17.9 µM (inactive) | 82.2 µM (inactive) | 19.3 µM (inactive) | 18 µM (inactive) |
| Cc1csc2n(C)c(=O)c3ccccc3[n+]12 | > 100 µM (inactive) | > 100 µM (inactive) | > 100 µM (inactive) | > 100 µM (inactive) | > 100 µM (inactive) | > 100 µM (inactive) | > 100 µM (inactive) | > 100 µM (inactive) | > 100 µM (inactive) | > 100 µM (inactive) | > 100 µM (inactive) | > 100 µM (inactive) | > 100 µM (inactive) | > 100 µM (inactive) | > 100 µM (inactive) | > 100 µM (inactive) | > 100 µM (inactive) | > 100 µM (inactive) | – |
